Measured values from US20050070510A1, “Substituted tetracycline compounds as synergistic antifungal agents” (Paratek Pharmaceuticals, Inc., priority 2001, published 2005).

These molecules were tested on COS-1 cells (assay: In vitro mammalian cytotoxicity assay (Resazurin)).

| SMILES | In Vitro Cytotoxicity |
| --- | --- |
| CC(C)S(=O)(=O)NCC#Cc1cc(N(C)C)c2c(c1O)C(=O)C1=C(O)[C@]3(C#N)C(=O)C(C(N)=O)=C(O)[C@@H](N(C)C)[C@]3(N)C[C@]1(N)C2 [JY] | * (toxicities greater than >25 μg/ml are represented by *) |
| CN(C)[C@@H]1C(O)=C(C(N)=O)C(=O)[C@@]2(C#N)C(O)=C3C(=O)c4c(O)ccc(C(=O)O)c4C[C@@]3(N)C[C@@]12N [JR] | * (toxicities greater than >25 μg/ml are represented by *) |
| CN(C)[C@@H]1C(O)=C(C(N)=O)C(=O)[C@@]2(C#N)C(O)=C3C(=O)c4c(cc(Br)c(N)c4O)[C@H](N)[C@@]3(N)[C@H](O)[C@@]12N [HY] | * (toxicities greater than >25 μg/ml are represented by *) |
| C#Cc1cc(N(C)C)c2c(c1O)C(=O)C1=C(O)[C@]3(C#N)C(=O)C(C(N)=O)=C(O)[C@@H](N(C)C)[C@]3(N)C[C@]1(N)C2 [DI] | ** (toxicities less than 25 μg/mL are represented by **) |
| CN(C)[C@@H]1C(O)=C(C(N)=O)C(=O)[C@@]2(OC(=O)CC(C)(C)C)C(O)=C3C(=O)c4c(ccc(NC(=O)NC(C)(C)C)c4O)[C@H](N)[C@@]3(N)[C@H](O)[C@@]12N [BG] | ** (toxicities less than 25 μg/mL are represented by **) |
| CN(C)[C@@H]1C(O)=C(C(N)=O)C(=O)[C@@]2(C#N)C(O)=C3C(=O)c4c(O)c(C(C)(C)C)cc(CN)c4C[C@@]3(N)C[C@@]12N [RC] | * (toxicities greater than >25 μg/ml are represented by *) |
| CCCCCc1ccc(O)c2c1C[C@@]1(N)C[C@@]3(N)[C@H](N(C)C)C(O)=C(C(N)=O)C(=O)[C@@]3(C#N)C(O)=C1C2=O [JU] | ** (toxicities less than 25 μg/mL are represented by **) |
| CCN(CC)Cc1ccc(OC)c(-c2ccc(O)c3c2C[C@@]2(N)C[C@@]4(N)[C@H](N(C)C)C(O)=C(C(N)=O)C(=O)[C@@]4(C#N)C(O)=C2C3=O)c1 [LR] | * (toxicities greater than >25 μg/ml are represented by *) |
| CN(C)c1cc(CNC(=O)Nc2ccc(F)cc2)c(O)c2c1C[C@@]1(N)C[C@@]3(N)[C@H](N(C)C)C(O)=C(C(N)=O)C(=O)[C@@]3(C#N)C(O)=C1C2=O [MY] | ** (toxicities less than 25 μg/mL are represented by **) |
| CN(C)c1cc(NC(=O)Nc2cccc3ccccc23)c(O)c2c1C[C@@]1(N)C[C@@]3(N)[C@H](N(C)C)C(O)=C(C(N)=O)C(=O)[C@@]3(C#N)C(O)=C1C2=O [CF] | ** (toxicities less than 25 μg/mL are represented by **) |
| CC(=O)NCc1cc(-c2ccccc2)c2c(c1O)C(=O)C1=C(O)[C@]3(C#N)C(=O)C(C(N)=O)=C(O)[C@@H](N(C)C)[C@]3(N)C[C@]1(N)C2 [LJ] | * (toxicities greater than >25 μg/ml are represented by *) |
| CN(C)c1cc(C#CC2(O)CCCCC2)c(O)c2c1C[C@@]1(N)C[C@@]3(N)[C@H](N(C)C)C(O)=C(C(N)=O)C(=O)[C@@]3(C#N)C(O)=C1C2=O [FP] | * (toxicities greater than >25 μg/ml are represented by *) |
| CC(=O)Oc1cccc(-c2cc(N(C)C)c3c(c2O)C(=O)C2=C(O)[C@]4(C#N)C(=O)C(C(N)=O)=C(O)[C@@H](N(C)C)[C@]4(N)C[C@]2(N)C3)c1 [GP] | * (toxicities greater than >25 μg/ml are represented by *) |
| CN(C)c1cc(-c2ccc(CN3CCCC3)cc2)c(O)c2c1C[C@@]1(N)C[C@@]3(N)[C@H](N(C)C)C(O)=C(C(N)=O)C(=O)[C@@]3(C#N)C(O)=C1C2=O [JZ] | ** (toxicities less than 25 μg/mL are represented by **) |
| CN(C)c1cc(CNCC2CCCCC2)c(O)c2c1C[C@@]1(N)C[C@@]3(N)[C@H](N(C)C)C(O)=C(C(N)=O)C(=O)[C@@]3(C#N)C(O)=C1C2=O [TB] | * (toxicities greater than >25 μg/ml are represented by *) |
| CN(C)c1cc(C2C=CCC2)c(O)c2c1C[C@@]1(N)C[C@@]3(N)[C@H](N(C)C)C(O)=C(C(N)=O)C(=O)[C@@]3(C#N)C(O)=C1C2=O (stereo partly shown) [DO] | ** (toxicities less than 25 μg/mL are represented by **) |
